This is an account of results in patent US11970494B2, “6-heteroaryloxy benzimidazoles and azabenzimidazoles as JAK2 inhibitors” (Ajax Therapeutics, Inc., priority 2021, dated 2024).

Read-outs that look alike come from different tables or passages of the source.

For data set [1], the system named is JAK2-mediated pSTAT5 signaling in constitutively active essential thrombocytopenia cells carrying the V617F mutation. The data set is described as follows: SET2-pSTAT5 Cellular Assay. The note with it: Homo sapiens. It counts as cell-based. The procedure: This assay measures inhibition of JAK2-mediated pSTAT5 signaling in constitutively active essential thrombocytopenia cells carrying the V617F mutation. Cells are harvested from a flask into cell culture medium, and the number of cells is counted. The cells are diluted with culture medium and 100 μL of cell suspension (50000/well) is added into each well of a 96-well cell culture plate. A solution of test compound is added to the assay plate. The plates are covered with a lid and placed in a 37° C. 5% CO2 incubator for 4 hours. After 4 hours, the cells are spun, and the cell pellets are re-suspended with 100 μL cold PBS. Then, the cells are spun again at 4° C. and 4000 rpm for 5 min. PBS is aspirated, and 25 μL lysis buffer (with protease and phosphatase inhibitor cocktail) is added to each cell pellet. The cell lysate is shaken at 4° C. for 20 min to fully lyse the cells. The cell lysate is spun at 4° C. and 4000 rpm for 15 min, and then the supernatant is transferred into a new plate and stored at −80° C. Meso-scale discovery (MSD) is used to analyze plates as follows: a standard MSD plate is coated with capture antibody in PBS (40 μL/well) and is incubated at 4° C. overnight with shaking. The MSD plate is washed three times with 150 μL/well of 1×MSD Wash Buffer (Tris-buffered saline with 0.1% Tween® 20 detergent, TBST). The MSD plates are then blocked with 150 μL of blocking buffer (5% BSA in TBST) and shaken for 1 h at room temperature and 600 rpm. The MSD plate is washed three times with 150 μL/well of 1×MSD Wash Buffer (TBST). Sample lysates are then added to MSD plates (25 μL/well) and shaken for 1 h at room temperature and 600 rpm. The MSD plate is washed three times with 150 μL/well of 1×MSD Wash Buffer (TBST). Detection antibody (prepared in Antibody Detection buffer, 1% BSA in 1×TBST) is then added to the MSD plates, and they are shaken for 1 h at room temperature and 600 rpm. The MSD plate is washed three times with 150 μL/well of 1×MSD Wash Buffer (TBST). A secondary detection antibody (prepared in Antibody Detection buffer, 1% BSA in 1×TBST) is then added to the MSD plates, and they are shaken for 1 h at room temperature and 600 rpm. The MSD plate is washed three times with 150 μL/well of 1×MSD Wash Buffer (TBST). MSD reading buffer (1×) is added to the plates (150 μL/well), and they are diluted from 4× with water. The plates are imaged using an MSD imaging instrument according to the manufacturer's instructions.

The nature of the next data set: Caco2 Permeability Assay. The data set is classed as in vitro ADME. The note with it: human; for efflux ratio at 2 h, 5 μM: pH 7.4, Caco-2, 5 μM, read-out: Efflux Ratio (ER); for Papp A→B at 2 h, 5 μM: pH 7.4, Caco-2, apical to basolateral. The procedure:
Preparation of Caco-2 Cells: 50 μL and 25 mL of cell culture medium are added to each well of a Transwell® insert and reservoir, respectively. Then, the HTS Transwell® plates are incubated at 37° C., 5% CO2 for 1 hour before cell seeding. Caco-2 cell cells are diluted to 6.86×10^5 cells/mL with culture medium, and 50 μL of cell suspension are dispensed into the filter well of the 96-well HTS Transwell® plate. Cells are cultivated for 14-18 days in a cell culture incubator at 37° C., 5% CO2, 95% relative humidity. Cell culture medium is replaced every other day, beginning no later than 24 hours after initial plating.
Preparation of Stock Solutions: 10 mM stock solutions of test compounds are prepared in DMSO. The stock solutions of positive controls are prepared in DMSO at the concentration of 10 mM. Digoxin and propranolol are used as control compounds in this assay.
Assessment of Cell Monolayer Integrity: Medium is removed from the reservoir and each Transwell® insert and is replaced with prewarmed fresh culture medium. Transepithelial electrical resistance (TEER) across the monolayer is measured using Millicell Epithelial Volt-Ohm measuring system (Millipore, USA). The Plate is returned to the incubator once the measurement is done. The TEER value is calculated according to the following equation: TEER measurement (ohms)×Area of membrane (cm^2)=TEER value (ohm⋅cm^2). A TEER value greater than 230 ohm⋅cm^2 indicates a well-qualified Caco-2 monolayer.
Assay Procedure: The Caco-2 plate is removed from the incubator and washed twice with pre-warmed HBSS (10 mM HEPES, pH 7.4), and then incubated at 37° C. for 30 minutes. The stock solutions of control compounds are diluted in DMSO to get 1 mM solutions and then diluted with HBSS (10 mM HEPES, pH 7.4) to get 5 μM working solutions. The stock solutions of the test compounds are diluted in DMSO to get 1 mM solutions and then diluted with HBSS (10 mM HEPES and 4% BSA, pH 7.4) to get 5 μM working solutions. The final concentration of DMSO in the incubation system is 0.5%. To determine the rate of drug transport in the apical to basolateral direction. 75 μL of 5 μM working solutions of test compounds are added to the Transwell® insert (apical compartment) and the wells in the receiver plate (basolateral compartment) are filled with 235 μL of HBSS (10 mM HEPES and 4% BSA, pH 7.4). To determine the rate of drug transport in the basolateral to apical direction, 235 μL of 5 μM working solutions of test compounds are added to the receiver plate wells (basolateral compartment) and then the Transwell® inserts (apical compartment) are filled with 75 μL of HBSS (10 mM HEPES and 4% BSA, pH 7.4). Time 0 samples are prepared by transferring 50 μL of 5 μM working solution to wells of the 96-deepwell plate, followed by the addition of 200 μL cold methanol containing appropriate internal standards (IS). The plates are incubated at 37° C. for 2 hours. At the end of the incubation, 50 μL samples from donor sides (apical compartment for Ap→*Bl flux, and basolateral compartment for Bl→Ap) and receiver sides (basolateral compartment for Ap→Bl flux, and apical compartment for Bl→Ap) are transferred to wells of a new 96-well plate, followed by the addition of 4 volume of cold acetonitrile or methanol containing appropriate internal standards (IS). Samples are vortexed for 5 minutes and then centrifuged at 3,220 g for 40 minutes. An aliquot of 100 μL of the supernatant is mixed with an appropriate volume of ultra-pure water before LC-MS/MS analysis. To determine the Lucifer Yellow leakage after 2 hour transport period, stock solution of Lucifer yellow is prepared in ultra-pure water and diluted with HBSS (10 mM HEPES, pH 7.4) to reach the final concentration of 100 μM. 100 μL of the Lucifer yellow solution is added to each Transwell® insert (apical compartment), followed by filling the wells in the receiver plate (basolateral compartment) with 300 μL of HBSS (10 mM HEPES, pH 7.4). […]

[2] abbreviates: SET-2, SET2 cells, pSTAT5, 4 hours, MSD, read-out: IC50.

Consider `COC(=O)Nc1cc(Oc2cnc3nc(Nc4cc(C(F)(F)F)cn(C)c4=O)n(C)c3c2C#N)ccn1` [Example I-3, Methyl (4-((7-cyano-1-methyl-2-((1-methyl-2-oxo-5-(trifluoromethyl)-1,2-dihydropyridin-3-yl)amino)-1H-imidazo[4,5-b]pyridin-6-yl)oxy)pyridin-2-yl)carbamate], for which the IC50 in data set [1] (SET-2, 4 h) was less than 125 nM. In “Caco2 Permeability Assay”, the efflux ratio at 2 h, 5 μM is no more than 2 and the Papp A→B at 2 h, 5 μM amounted to 12 ×10⁻⁶ cm/s.

In turn, `CN(C)C(=O)Nc1cc(Oc2cnc3nc(Nc4cc(C(F)(F)F)cn(C)c4=O)n(C)c3c2C#N)ccn1` [Example I-4, 3-(4-((7-cyano-1-methyl-2-((1-methyl-2-oxo-5-(trifluoromethyl)-1,2-dihydropyridin-3-yl)amino)-1H-imidazo[4,5-b]pyridin-6-yl)oxy)pyridin-2-yl)-1,1-dimethylurea] registered an IC50 in data set [1] (SET-2, 4 h) of less than 125 nM. In “Caco2 Permeability Assay”, the efflux ratio at 2 h, 5 μM lay within 2 to 5 and the Papp A→B at 2 h, 5 μM came to 7 ×10⁻⁶ cm/s.

`Cn1cc(C(F)(F)F)cc(Nc2nc3ncc(Oc4ccnc(NC(=O)N5CCC5)c4)c(C#N)c3n2C)c1=O` [Example I-7, N-(4-((7-cyano-1-methyl-2-((1-methyl-2-oxo-5-(trifluoromethyl)-1,2-dihydropyridin-3-yl)amino)-1H-imidazo[4,5-b]pyridin-6-yl)oxy)pyridin-2-yl)azetidine-1-carboxamide]: in data set [1] (setting [2]), the IC50 is less than 125 nM. In “Caco2 Permeability Assay”, the efflux ratio at 2 h, 5 μM was 2 to 5 and the Papp A→B at 2 h, 5 μM was found to be 6 ×10⁻⁶ cm/s.

Regarding `CO[C@H]1CCN(C(=O)Nc2cc(Oc3cnc4nc(Nc5cc(C(F)(F)F)cn(C)c5=O)n(C)c4c3C#N)ccn2)C1` [Example I-14, (S)-N-(4-((7-cyano-1-methyl-2-((1-methyl-2-oxo-5-(trifluoromethyl)-1,2-dihydropyridin-3-yl)amino)-1H-imidazo[4,5-b]pyridin-6-yl)oxy)pyridin-2-yl)-3-methoxypyrrolidine-1-carboxamide], the IC50 in data set [1] (setting [2]) was less than 125 nM. In the data set “Caco2 Permeability Assay”, the efflux ratio at 2 h, 5 μM fell in the range of 2 to 5 and the Papp A→B at 2 h, 5 μM amounted to 4 ×10⁻⁶ cm/s.

Regarding `Cn1cc(C(F)(F)F)cc(Nc2nc3ncc(Oc4ccnc(NC(=O)OCCN5CCOCC5)c4)c(C#N)c3n2C)c1=O` [Example I-15, 2-Morpholinoethyl(4-((7-cyano-1-methyl-2-((1-methyl-2-oxo-5-(trifluoromethyl)-1,2-dihydropyridin-3-yl)amino)-1H-imidazo[4,5-b]pyridin-6-yl)oxy)pyridin-2-yl)carbamate], the IC50 in data set [1] (setting [2]) is less than 125 nM. Further, in “Caco2 Permeability Assay”, the efflux ratio at 2 h, 5 μM lay within 2 to 5 and the apparent permeability from apical to basolateral (Papp A→B) at 2 h, 5 μM came out at 4 ×10⁻⁶ cm/s.

Regarding `Cn1cc(C(F)(F)F)cc(Nc2nc3ncc(Oc4ccnc(NC(=O)O[C@@H]5CCOC5)c4)c(C#N)c3n2C)c1=O` [Example I-18, (R)-Tetrahydrofuran-3-yl(4-((7-cyano-1-methyl-2-((1-methyl-2-oxo-5-(trifluoromethyl)-1,2-dihydropyridin-3-yl)amino)-1H-imidazo[4,5-b]pyridin-6-yl)oxy)pyridin-2-yl)carbamate], the IC50 in data set [1] (setting [2]) was less than 125 nM. In the data set “Caco2 Permeability Assay”, the efflux ratio at 2 h, 5 μM is 2 to 5 and the Papp A→B at 2 h, 5 μM was determined as 2 ×10⁻⁶ cm/s.

Turning to `COC1CN(C(=O)Nc2cc(Oc3cnc4nc(Nc5cc6n(n5)CCCC6(F)F)n(C)c4c3C#N)ccn2)C1` [Example I-26, N-(4-((7-cyano-2-((4,4-difluoro-4,5,6,7-tetrahydropyrazolo[1,5-a]pyridin-2-yl)amino)-1-methyl-1H-imidazo[4,5-b]pyridin-6-yl)oxy)pyridin-2-yl)-3-methoxyazetidine-1-carboxamide], the IC50 in data set [1] (setting [2]) was in the range of 200 to 1000 nM. Moreover, in the data set “Caco2 Permeability Assay”, the efflux ratio at 2 h, 5 μM is 5 to 10 and the Papp A→B at 2 h, 5 μM was 2 ×10⁻⁶ cm/s.

Regarding `Cn1c(Nc2cc3n(n2)CCOC3(C)C)nc2ncc(Oc3ccnc(NC(=O)O[C@@H]4CCOC4)c3)c(C#N)c21` [Example I-48, (R)-Tetrahydrofuran-3-yl(4-((7-cyano-2-((4,4-dimethyl-6,7-dihydro-4H-pyrazolo[5,1-c][1,4]oxazin-2-yl)amino)-1-methyl-1H-imidazo[4,5-b]pyridin-6-yl)oxy)pyridin-2-yl)carbamate], the IC50 in data set [1] (setting [2]) is 1000 to 5000 nM. For the same molecule, in the data set “Caco2 Permeability Assay”, the efflux ratio at 2 h, 5 μM was 5 to 10 and the Papp A→B at 2 h, 5 μM came to 2 ×10⁻⁶ cm/s.

For `CN(C)C(=O)Nc1cc(Oc2cnc3nc(Nc4cc5n(n4)CCC54CCC4)n(C)c3c2C#N)ccn1` [Example I-56, 3-(4-((7-cyano-2-((5′,6′-dihydrospiro[cyclobutane-1,4′-pyrrolo[1,2-b]pyrazol]-2′-yl)amino)-1-methyl-1H-imidazo[4,5-b]pyridin-6-yl)oxy)pyridin-2-yl)-1,1-dimethylurea], in data set [1] (SET-2, 4 h), the IC50 is 125 to 200 nM. Besides, in the data set “Caco2 Permeability Assay”, the efflux ratio at 2 h, 5 μM is no more than 2 and the Papp A→B at 2 h, 5 μM was 5 ×10⁻⁶ cm/s.

For the molecule `COC(=O)Nc1cc(Oc2cnc3nc(Nc4cc5n(n4)CCC54CCC4)n(C)c3c2C#N)ccn1` [Example I-57, methyl(4-((7-cyano-2-((5′,6′-dihydrospiro[cyclobutane-1,4′-pyrrolo[1,2-b]pyrazol]-2′-yl)amino)-1-methyl-1H-imidazo[4,5-b]pyridin-6-yl)oxy)pyridin-2-yl)carbamate], in data set [1] (SET-2, 4 h), the 50% inhibitory concentration (IC50) lay within 125 to 200 nM. Besides, in “Caco2 Permeability Assay”, the efflux ratio at 2 h, 5 μM is no more than 2 and the Papp A→B at 2 h, 5 μM came out at 5 ×10⁻⁶ cm/s.
